From US7910624B1, “Compositions for the treatment of blood disorders” (The Trustees of Boston University, priority 1995, dated 2011)

Columns and labels:
[1] = system: proximal promoter of the gamma globin gene in K562 cells; assay: Gamma globin promoter-neomycin (NEO) transfection, colony survival in G418; format: cell-based, human; conditions: 1 mM, 8 weeks
Procedure: Gamma globin promoter-neomycin transfection experiments were performed to determine if compounds act by inducing an increase in activity from the proximal promoter of the gamma globin gene. Constructs containing 61 by of the proximal gamma globin promoter were linked to the reporter gene for neomycin phosphotransferase (NEO) and transfected into permissive K562 cells by electroporation. After 18 hours, transfected cells were passed at 10^3 cells per well into RPMI media containing G418 (neomycin), which kills all mammalian cells unless the gene for NEO is expressed. Phenoxyacetic acid and thiophenoxyacetic acid were added to some of the cells plated into the RPMI/G418 media at concentrations of 1 mM. Cultures were incubated for 8 weeks with media changes performed as needed. Colonies which survived and grew in the presence of G418 were scored and the number of such colonies was compared to those generated when the cells were plated into G418 media without the test compounds. No colonies in the 24 wells survived in the absence of compounds. There was a greater than 6-fold (>600%) increase in proportions of colonies surviving the presence of phenoxyacetic acid (6/24 wells) and a three-fold (300%) increase in survival in the presence of thiophenoxyacetic acid (3/24 wells).

anemic juvenile baboons = assay: In vivo reticulocyte proliferation and globin expression in phlebotomized anemic baboons; parameters: species or system baboon
Procedure: Experiments were performed to determine if administration of the chemical compositions could induce fetal globin gene expression in an in vivo model similar to humans (S. P. Perrin et al., Brit. J. Haematol. 88:555-61, 1994). Briefly, chemicals were prepared as sterile pharmaceutical solutions in pH adjusted sterile water. A variety of chemical compositions were administered sequentially to some baboons. After administration of one compound, a wash-out period with no compound administration was maintained until reticulocytes returned to base line prior to administration of the next compound. This was done, at least partly, to compare the magnitude of response which occurred within the same individual animal to different compounds.
Briefly, juvenile female baboons (2 years old) were catheterized with arterial and venous catheters and phlebotomized gradually every day to maintain a moderate anemia of 7.0 to 7.5 grams hemoglobin/dl. Fetal reticulocytes, the newly produced red blood cells containing fetal globin, were assayed using a monoclonal antibody against fetal globin (HbF) as described by G. Dover et al. (Blood 67:735-38, 1986). Briefly, blood was stained with two antibodies, one specific for reticulocytes and another against fetal globin protein. The amount of antibody bound cells was determined by FACS analysis. Globin chain synthesis was assayed as described by J. B. Clegg et al. (J. Mol. Biol. 19:91-108, 1966). Briefly, reticulocytes were radio-labeled with ^3H-leucine which was incorporated in equal proportions into actively synthesized globin chains. After incubation in leucine-free media, cells were washed, and globin proteins were separated and purified by column chromatography. Radioactivity incorporated into each peak is compared and the ratios of gamma to gamma plus beta globin calculated. Each animal served as its own control with baseline monitoring assays performed for 4-6 weeks before any drug was administered. Phlebotomy was continued daily, so that peripheral HbF levels in the animals were not considered to be accurate over the short treatment time-frames and were not monitored. Safety monitoring was performed by frequent physical examinations, quantitation of food eaten, activity and frequent chemistry and hematology monitoring. Complete blood counts were assayed before, during and after treatment. Results presented were not adjusted to account for the daily phlebotomy.

[2] = system: system A transport in K562 cells and nucleated erythroblasts from fetal liver; assay: System A (neutral amino acid) transport, 3H-MAIB uptake; format: cell-based, human; conditions: 1 hour incubation; FIG. 12
Procedure: Inhibition of nutrient uptake is undesirable for treatment of anemias. Methyl aminoisobutyric acid (MAIB) labeled with tritium (^3H) is normally taken up by system A amino acid transport. Cold (unlabeled) compounds were added to cultures containing ^3H-MAIB and incubated for 1 hour. Cells were harvested and the amount of ^3H taken up by cells was quantitated by scintillation counting.

[3] = system: Human erythroleukemia cells; assay: Fetal globin mRNA in erythroleukemia cells by primer extension; format: cell-based; conditions: 1.0 mM, 4 days
Procedure: Compounds were tested for increased expression of the human globin genes in human erythroid cells. In addition, as the cell line being tested is a tumor cell line, the assay determines if differentiation, a growth inhibitory effect on cancer cells, is induced by the compounds tested. Human erythroleukemia cells were cultured in RPMI media with 10% fetal calf serum alone or with treatment with various compounds for 4 days. Globin mRNA was quantitated by primer extension analysis. Fetal globin mRNA was compared to the amount of fetal globin mRNA produced in untreated cells during the same culture period. The quantitation was expressed as a percent of alpha globin mRNA which was constant. Results are expressed proportional to α-globin mRNA (Table 3).

[4] = system: erythroid progenitor cells cultured from human cord blood; assay: Fetal globin expression in human cell cultures (3H-leucine labelled globin chains, densitometry); format: cell-based; conditions: for Gamma Increase: Exp. B, 12-13 days
Procedure: Compositions were tested for activity in inducing fetal globin expression and protein production in erythroid progenitor cells cultured from human cord blood and analyzed as described by S. P. Perrine et al. (Blood 74: 454-60, 1989). Briefly, mononuclear cells were cultured in IMDM with 30% fetal calf serum and 2 units erythropoietin per ml to induce erythroid differentiation. Colonies were harvested on day 12-13, incubated with radio-labelled (^3H) leucine, and further incubated in leucine-free media, still in the presence of compounds, overnight. Globin composition in the erythroid cells was analyzed by laser densitometry of electrophoretically separated globin chains stained with Coomassie blue, and by autoradiography. Treated cells were incubated for 12-13 days (Table 2, Experiments A and B) or overnight (Table 2, Experiment C) in the presence of the indicated compounds and compared to untreated control cells cultured from the same human subject.

**Q.** Which “increase in proportions of colonies surviving G418” value [1] does the source give for `O=C(O)CSc1ccccc1` [thiophenoxyacetic acid] here?
**A.** The value was 300%.

**Q.** And the “increase in proportions of colonies surviving G418” value ([1]; no colonies without compounds)?
**A.** Its value is “three-fold”.

**Q.** With `CCCC(=O)OCC(COC(=O)CCC)OC(=O)CCC` [tributyrin] as the compound, how does the “gamma globin expression after treatment” value (anemic juvenile baboons; intravenous 3 days, 500 to 750 mg/kg per day, from 0%) read?
**A.** Its value is “about 2.2 % of total non-alpha globin expression”.

**Q.** What about the “fetal reticulocytes after treatment” value (anemic juvenile baboons; intravenous 3 days, 500 to 750 mg/kg per day, from 10%) of the same compound?
**A.** The value was 14%.

**Q.** For `CC(=Cc1ccccc1)C(=O)O` [α-methyl cinnamic acid], which “system A transport of amino acids (3H-MAIB uptake)” value [2] is on record?
**A.** The value was “do not significantly alter”.

**Q.** `CCCC(=O)OCC(O)CO` (stereo not shown) [MB, monobutyrin] was tested. Which “induction of fetal globin mRNA in human cells” value [3] did it give?
**A.** The value was “significantly increased”.

**Q.** And the “Gamma/Alpha (fetal globin mRNA proportional to α-globin mRNA)” value ([3]; untreated 0.46)?
**A.** The value was 0.73.

**Q.** What about the “Gamma Globin mRNA (increase ↑)” value ([3]; versus untreated) of the same compound?
**A.** Its value is 26% ↑.

**Q.** And the “fetal reticulocytes above basal levels” value (anemic juvenile baboons; intravenous each day, 4 days, 500 to 2,000 mg/kg)?
**A.** Its value is 220%.

**Q.** And the “fetal reticulocytes after treatment” value (anemic juvenile baboons; intravenous each day, 4 days, 500 to 2,000 mg/kg, from 12%)?
**A.** The value was 27%.

**Q.** How did the “Gamma Increase” value ([4]; 0.05 mM) turn out when `CC(CO)C(N)=O` (stereo not shown) [MHPP, 2 methyl-3-hydroxypropionamide, reference compound] was run?
**A.** Its value is 2.0%.

**Q.** And the “Gamma Increase” value ([4]; 1.0 mM)?
**A.** Its value is −3.5%.

**Q.** And the “expression of fetal globin (FIG. 4)” value ([4]; concentrations above 0.25 mM)?
**A.** Its value is “decreased the expression of fetal globin”.

**Q.** And the “expression of fetal globin (FIG. 4)” value ([4]; concentrations below 0.25 mM)?
**A.** The value was “increased fetal globin expression”.

**Q.** Which “system A transport of amino acids (3H-MAIB uptake)” value [2] does the source give for `CC(Cc1ccccc1)C(=O)O` (stereo not drawn) [α-methyl hydrocinnamic acid] here?
**A.** Its value is “caused no significant inhibition and actually increased uptake of nutrients into cells”.

**Q.** And the “rise of total hemoglobin” value (anemic juvenile baboons; baboon, infused 8 h/day, 5 days: 500 mg/kg 2 days, 700 mg/kg 2 days, 1,000 mg/kg 1 day, over 3 days)?
**A.** The value was 1.5 grams/dl.

**Q.** What about the “red blood cell count after treatment” value (anemic juvenile baboons; same regimen (500/700/1,000 mg/kg, 5 days), rose from 2.28) of the same compound?
**A.** Its value is 3.53 ×10^6 red blood cells per microliter.

**Q.** What about the “total number of reticulocytes after treatment” value (anemic juvenile baboons; same regimen (500/700/1,000 mg/kg, 5 days), rose from 5.6%) of the same compound?
**A.** The value was 11%.

**Q.** And the “total hemoglobin after treatment” value (anemic juvenile baboons; same regimen (500/700/1,000 mg/kg, 5 days), rose from 6.4)?
**A.** Its value is 7.9 grams/dl.

**Q.** What about the “packed red blood cell volume after treatment” value (anemic juvenile baboons; same regimen (500/700/1,000 mg/kg, 5 days), rose from 19.5%) of the same compound?
**A.** Its value is 31.2 % of total blood volume.

**Q.** What about the “platelet count after treatment” value (anemic juvenile baboons; same regimen (500/700/1,000 mg/kg, 5 days), rose from 26.7) of the same compound?
**A.** The value was 46.8 ×10^4 cells/μl.

**Q.** What about the “total fetal globin synthesis after treatment” value (anemic juvenile baboons; second baboon, 500 mg/kg 8 h, 700 mg/kg 8 h, 700 mg/kg 2, 4 and 6 h, after 5 days, from 4.0%) of the same compound?
**A.** Its value is 10.8%.

**Q.** What about the “rise of total hemoglobin” value (anemic juvenile baboons; second baboon, 500-700 mg/kg, 5 days) of the same compound?
**A.** The value was 1.4 grams.

**Q.** And the “red blood cell counts after treatment” value (anemic juvenile baboons; second baboon, 500-700 mg/kg, 5 days, from 2.3×10^6)?
**A.** The value was 2.82×10^6.

**Q.** What about the “total hemoglobin after treatment” value (anemic juvenile baboons; second baboon, 500-700 mg/kg, 5 days, from 4.6) of the same compound?
**A.** The value was 6.0 g/dL.

**Q.** What about the “packed red blood cell volume after treatment” value (anemic juvenile baboons; second baboon, 500-700 mg/kg, 5 days, from 14.5%) of the same compound?
**A.** The value was 20.2%.

**Q.** What about the “white blood cell counts, maximum” value (anemic juvenile baboons; second baboon, 500-700 mg/kg, 5 days, from 8,700) of the same compound?
**A.** The value was 14,300.

**Q.** What about the “platelet counts, high” value (anemic juvenile baboons; second baboon, 500-700 mg/kg, 5 days, from 328,000) of the same compound?
**A.** The value was 486,000.

**Q.** What about the adverse effects (anemic juvenile baboons; third baboon, 5 days) of the same compound?
**A.** The adverse effects was “No adverse affects were observed”.

**Q.** What about the “fetal globin protein synthesis after treatment” value (anemic juvenile baboons; third baboon, after 5 days, from 0%) of the same compound?
**A.** The value was 6.2 % of non-alpha globin.

**Q.** And the “fetal hemoglobin producing reticulocytes after treatment” value (anemic juvenile baboons; third baboon, same dose, after 5 days (FIG. 8), from 0%)?
**A.** The value was 10%.
